Test results taken from patent US8278309B2, “Synthetic mimetics of host defense and uses thereof” (priority 2008, dated 2012).
In brackets after ≈: the same amount, converted by molar mass. Like-named read-outs stand apart in the source and are kept apart here.

Key:
Entero. faecalis = assay: MIC broth microdilution, Gram-positive clinical isolates; type: cell-based; conditions: Enterococcus faecalis
Protocol: (§1) Compound A was evaluated in vitro in accordance with defined CLSI documents specific to the organisms (aerobic, anaerobic or yeast) tested in this study. Ampicillin, ceftazidime, cefuroxime, ciprofloxacin, linezolid, and vancomycin were tested alongside as comparator agents for aerobic bacteria; clindamycin and metronidazole were tested as comparators for anaerobes; fluconazole was tested as a comparator for yeast isolates. Stock solutions of Compound A were prepared in dimethyl sulfoxide (DMSO). Ampicillin, ceftazidime, cefuroxime, ciprofloxacin, linezolid, vancomycin, metronidazole, clindamycin, and fluconazole were prepared each according to its manufacturer's guideline.
(§2) Minimum inhibitory concentrations (MICs) in μg/ml were determined according to CLSI guideline M7-A7 by broth microdilution. All aerobes were tested using Mueller-Hinton broth medium with the exception of Streptococcus spp., which were tested using cation-adjusted Mueller-Hinton broth supplemented with 2-5% lysed horse blood.

Entero. faecium (VRE) = assay: as above; type: cell-based; conditions: Enterococcus faecium
Protocol: as §1, §2

Staph. aureus (MRSA) = assay: as above; type: cell-based; conditions: Staphylococcus aureus
Protocol: as §1, §2

Staph. spidermidis = assay: as above; type: cell-based
Protocol: as §1, §2

Staph. spp. (coagulase−) = assay: as above; type: cell-based
Protocol: as §1, §2

Strept. agalactiae = assay: as above; type: cell-based; conditions: Streptococcus agalactiae
Protocol: as §1, §2

Strept. pneumoniae = assay: as above; type: cell-based; conditions: Streptococcus pneumoniae
Protocol: as §1, §2

Strept. pyogenes = assay: as above; type: cell-based; conditions: Streptococcus pyogenes
Protocol: as §1, §2

Strept. viridians = assay: as above; type: cell-based
Protocol: as §1, §2

Acinetobacter spp. = assay: MIC broth microdilution, Gram-negative clinical isolates; type: cell-based; conditions: 2-3 isolates/organism
Protocol: as §1, §2

Citrobacter freundi = assay: as above; type: cell-based
Protocol: as §1, §2

Citrobacter koseri = assay: as above; type: cell-based
Protocol: as §1, §2

Enterobacter cloacae = assay: as above; type: cell-based
Protocol: as §1, §2

Escherichia coli = assay: as above; type: cell-based
Protocol: as §1, §2

Haemophilus influenzae = assay: as above; type: cell-based
Protocol: as §1, §2

Klebsiella oxytoca = assay: as above; type: cell-based
Protocol: as §1, §2

Klebsiella pneumoniae = assay: as above; type: cell-based
Protocol: as §1, §2

Morganella morganii = assay: as above; type: cell-based
Protocol: as §1, §2

Proteus mirabilis = assay: as above; type: cell-based
Protocol: as §1, §2

Proteus vulgarisi = assay: as above; type: cell-based
Protocol: as §1, §2

Providencia stuartii = assay: as above; type: cell-based
Protocol: as §1, §2

Pseudomonas aeruginosa = assay: as above; type: cell-based; conditions: 2-3 isolates/organism
Protocol: as §1, §2

Serratia marcescens = assay: as above; type: cell-based
Protocol: as §1, §2

[1] = tested on: Stenotrophomonas maltophilia; assay: as above; type: cell-based
Protocol: as §1, §2

Staph. saprophyticus = assay: MIC broth microdilution, Gram-positive clinical isolates; type: cell-based; conditions: Staphylococcus saprophyticus
Protocol: as §1, §2

S. aureus = assay: MIC or MIC90 vs S. aureus (selectivity table); type: cell-based; conditions: * marks MIC90
MSSA ATCC 29213 = assay: Serial passage resistance, MSSA; type: cell-based, S. aureus; conditions: serial passage at 0.5×MIC
Protocol: (§3) Frozen bacterial stocks (20 μL) of S. aureus ATCC29213 or methicillin-resistant S. aureus (MRSA ATCC 33591) were inoculated into 3 mL cation-adjusted Mueller-Hinton medium and incubated at 37° C. on a shaker platform (250 rpm) overnight. The suspension was diluted to approximately 5×10^5 cfu/mL and inoculated into a polypropylene (Costar) 96-well round bottom plate (90 μL volumes). Compound stock solutions of Compound A and norfloxacin (Sigma Aldrich, St. Louis, Mo.; Catalogue# N9890) were prepared in DMSO and serial two-fold dilutions of compound were made in 0.01% acetic acid, 0.2% bovine serum albumin directly in the wells of the polypropylene plate at 10 μL/well. Final concentrations of Compound A were 50, 25, 12.5, 6.25, 3.13, 1.56, 0.78, 0.39, 0.19, 0.098, 0.049, and 0.024 μg/mL. Final concentration ranges of norfloxacin were 100, 50, 25, 12.5, 6.25, 3.13, 1.56, 0.78, 0.39, 0.19, 0.098, and 0.049 μg/mL. […] All samples were performed in triplicate. Following a 24 hour incubation at 37° C., cell growth was assessed by observing the presence of “acceptable growth”, defined by CLSI as a ≧2 mm button or definite turbidity. The MIC wells were defined as the lowest concentration where acceptable growth was not observed. For serial passage, 50 μL aliquots were taken from 2 of 3 replicate wells at 0.5×MIC and combined into 900 μL of fresh cation-adjusted Mueller-Hinton medium. The OD600 was measured and the cell suspensions were inoculated into polypropylene 96-well round bottom plates (90 μL volumes) at approximately 5×10^5 cfu/mL. Ten μL of compound stock solutions were added previously to the wells to achieve the concentration ranges for each compound described above. All samples were performed in triplicate. The plates were incubated for 24 hours at 37° C. This process was repeated for a total of 17 passages and MIC values were recorded at each passage.

MRSA ATCC 33591 = assay: Serial passage resistance, MRSA; type: cell-based, S. aureus; conditions: serial passage at 0.5×MIC
Protocol: as §3

[2] = Staph. spidermidis, 2-3 isolates/organism, read-out: MIC
[3] = 2-3 isolates/organism, read-out: MIC
[4] = Proteus vulgarisi, 2-3 isolates/organism, read-out: MIC

CC(C)(O/N=C(\C(=O)N[C@@H]1C(=O)N2C(C(=O)[O-])=C(C[n+]3ccccc3)CS[C@H]12)c1csc(N)n1)C(=O)O [Ceftazidime]
MIC (Entero. faecalis; Entero. faecalis, 2-3 isolates/organism, read-out: MIC): > 64 µg/mL
MIC (Entero. faecium (VRE); Entero. faecium (VRE), 2-3 isolates/organism, read-out: MIC): > 64 µg/mL
MIC (Staph. aureus (MRSA); Staph. aureus (MRSA), 2-3 isolates/organism, read-out: MIC): 32 µg/mL (≈ 58.5 µM)
MIC (Staph. spidermidis; [2]): 16 to 32 µg/mL (≈ 29.3 to 58.5 µM)
MIC (Staph. spp. (coagulase−); Staph. spp. (coagulase−), 2-3 isolates/organism, read-out: MIC): 16 to 32 µg/mL (≈ 29.3 to 58.5 µM)
MIC (Strept. agalactiae; Strept. agalactiae, 2-3 isolates/organism, read-out: MIC): 0.5 µg/mL (≈ 0.915 µM)
MIC (Strept. pneumoniae; Strept. pneumoniae, 2-3 isolates/organism, read-out: MIC): 0.25 µg/mL (≈ 0.457 µM)
MIC (Strept. pyogenes; Strept. pyogenes, 2-3 isolates/organism, read-out: MIC): 0.12 µg/mL (≈ 0.22 µM)
MIC (Strept. viridians; Strept. viridians, 2-3 isolates/organism, read-out: MIC): 0.5 to 4 µg/mL (≈ 0.915 to 7.32 µM)
MIC (Acinetobacter spp.): 2 to 64 µg/mL (≈ 3.66 to 117 µM)
MIC (Citrobacter freundi; Citrobacter freundi, 2-3 isolates/organism, read-out: MIC): 0.25 to 2 µg/mL (≈ 0.457 to 3.66 µM)
MIC (Citrobacter koseri; [3]): 0.12 to 0.25 µg/mL (≈ 0.22 to 0.457 µM)
MIC (Enterobacter cloacae; [3]): 0.25 µg/mL (≈ 0.457 µM)
MIC (Escherichia coli; [3]): 0.06 µg/mL (≈ 0.11 µM)
MIC (Haemophilus influenzae; [3]): 0.06 to 0.12 µg/mL (≈ 0.11 to 0.22 µM)
MIC (Klebsiella oxytoca; [3]): 0.06 to 0.12 µg/mL (≈ 0.11 to 0.22 µM)
MIC (Klebsiella pneumoniae; [3]): 0.06 to 0.12 µg/mL (≈ 0.11 to 0.22 µM)
MIC (Morganella morganii; [3]): 2 to 16 µg/mL (≈ 3.66 to 29.3 µM)
MIC (Proteus mirabilis; [3]): 0.03 to 0.06 µg/mL (≈ 0.0549 to 0.11 µM)
MIC (Proteus vulgarisi; [4]): 0.12 µg/mL (≈ 0.22 µM)
MIC (Providencia stuartii; [3]): 0.12 to 0.64 µg/mL (≈ 0.22 to 1.17 µM)
MIC (Pseudomonas aeruginosa): 1 to 8 µg/mL (≈ 1.83 to 14.6 µM)
MIC (Serratia marcescens; [3]): 0.12 to 0.25 µg/mL (≈ 0.22 to 0.457 µM)
MIC [1, 3]: 4 to 8 µg/mL (≈ 7.32 to 14.6 µM)

CC(=O)NC[C@H]1CN(c2ccc(N3CCOCC3)c(F)c2)C(=O)O1 [Linezolid]
MIC (Staph. spidermidis; [2]): 0.5 to 1 µg/mL (≈ 1.48 to 2.96 µM)
MIC (Klebsiella oxytoca; [3]): > 16 µg/mL
MIC (Proteus vulgarisi; [4]): > 16 µg/mL

CN[C@H](CC(C)C)C(=O)N[C@H]1C(=O)N[C@@H](CC(N)=O)C(=O)N[C@H]2C(=O)N[C@H]3C(=O)N[C@H](C(=O)N[C@H](C(=O)O)c4cc(O)cc(O)c4-c4cc3ccc4O)[C@H](O)c3ccc(c(Cl)c3)Oc3cc2cc(c3O[C@@H]2O[C@H](CO)[C@@H](O)[C@H](O)[C@H]2O[C@H]2C[C@](C)(N)[C@H](O)[C@H](C)O2)Oc2ccc(cc2Cl)[C@H]1O [Vancomycin]
MIC (Entero. faecalis): 1 µg/mL (≈ 0.69 µM)
MIC (Entero. faecium (VRE); VRE): > 128 µg/mL
MIC (Staph. aureus (MRSA); MRSA): 0.5 to 1 µg/mL (≈ 0.345 to 0.69 µM)
MIC (Staph. saprophyticus): 1 to 2 µg/mL (≈ 0.69 to 1.38 µM)
MIC (Staph. spidermidis): 2 µg/mL (≈ 1.38 µM)
MIC (Staph. spp. (coagulase−)): 1 to 2 µg/mL (≈ 0.69 to 1.38 µM)
MIC (Strept. agalactiae): 0.5 µg/mL (≈ 0.345 µM)
MIC (Strept. pneumoniae): 0.5 µg/mL (≈ 0.345 µM)
MIC (Strept. pyogenes): 0.5 µg/mL (≈ 0.345 µM)
MIC (Strept. viridians): 0.5 to 1 µg/mL (≈ 0.345 to 0.69 µM)
MIC (Citrobacter freundi; Citrobacter): > 128 µg/mL
MIC (Citrobacter koseri): > 128 µg/mL
MIC (Enterobacter cloacae): > 128 µg/mL
MIC (Escherichia coli): > 128 µg/mL
MIC (Haemophilus influenzae): 128 µg/mL (≈ 88.3 µM)
MIC (Klebsiella oxytoca): > 128 µg/mL
MIC (Klebsiella pneumoniae): > 128 µg/mL
MIC (Morganella morganii): > 128 µg/mL
MIC (Proteus mirabilis): > 128 µg/mL
MIC (Proteus vulgarisi): > 128 µg/mL
MIC (Providencia stuartii): > 128 µg/mL
MIC (Serratia marcescens): > 128 µg/mL
MIC [1]: 32 to 128 µg/mL (≈ 22.1 to 88.3 µM)

CC[C@H](C)[C@H](NC(=O)CN)C(=O)NCC(=O)N[C@@H](C)C(=O)N[C@H](C(=O)N[C@@H](CC(C)C)C(=O)N[C@@H](CCCCN)C(=O)N[C@H](C(=O)N[C@@H](CC(C)C)C(=O)N[C@H](C(=O)N[C@H](C(=O)NCC(=O)N[C@@H](CC(C)C)C(=O)N1CCC[C@H]1C(=O)N[C@@H](C)C(=O)N[C@@H](CC(C)C)C(=O)N[C@H](C(=O)N[C@@H](CO)C(=O)N[C@@H](Cc1c[nH]c2ccccc12)C(=O)N[C@H](C(=O)N[C@@H](CCCCN)C(=O)N[C@@H](CCCNC(=N)N)C(=O)N[C@@H](CCCCN)C(=O)N[C@@H](CCCNC(=N)N)C(=O)N[C@@H](CCC(N)=O)C(=O)N[C@@H](CCC(N)=O)C(N)=O)[C@@H](C)CC)[C@@H](C)CC)[C@@H](C)O)[C@@H](C)O)C(C)C)C(C)C [melittin, reference compound]
MIC or MIC90* S. aureus (S. aureus): 2 µg/mL (≈ 0.703 µM)

CCn1cc(C(=O)O)c(=O)c2cc(F)c(N3CCNCC3)cc21 [norfloxacin, reference compound]
increase in MIC by passage 15 (MSSA ATCC 29213): 128 fold
rise in MIC values by passage 3 (MSSA ATCC 29213): 4 doubling dilutions
increase in MIC by passage 15 (MRSA ATCC 33591): 64 fold
rise in MIC values by passage 3 (MRSA ATCC 33591): 4 doubling dilutions
